Reference: patent US11679096B1, “Composition and method of treatment of elevated ApoE gene expression related health issues” (priority 2022, dated 2023)

Key:
[1] = tested on: ApoE gene transcripts in NHDF; assay: ApoE gene transcription (RT-PCR) in normal human dermal fibroblasts; assay type: cell-based; details: overnight
[2] = tested on: iNOS gene transcripts in lung cancer cell line A549; assay: iNOS expression (RT-PCR) in lung cancer cells with IL-1β; assay type: cell-based, human
Experimental: (§1) ApoE and iNOS determination: Fibroblasts from Alzheimer disease (AD) […] (AG07887), and […] (AG08629) and/or Normal Human fibroblasts (NHDF) and/or lung cancer cell line A549 were grown on DMEM/F12 without phenol red (Gibco, USA). Media was supplemented with charcoal stripped, sterile-filtered 10% fetal bovine serum (Sigma-Millipore, USA Origen), and 1% penicillin-streptomycin.
(§2) Cells were separated and splatted in 2 cm cell culture dishes and subjected to none or treated with IL-1βat 15 pg/ml, in the presence of Basic Mix (1 μg/ml), Mix 1-1 (1 μg/ml), Mix 1-2 (2 μg/ml), genistein (1 μg/ml), and estrogen E2 (5 nM) as indicated in each experiment. Treated cells were incubated for two hours or overnight followed by RNA isolation and purification for RT-PCR analysis.
(§3) Total RNA was obtained by standard method RNeasy* Plus, (Qiagen, Germany) lysing cells with RLT Plus buffer according to the manufacturer's instructions. Equal amount of RNA extracted from each treated lysate was reverse transcribed in 20 microliters reactions with RT-QuantiTech kit (Qiagen, Germany). […] Amplification in 40 cycles and Ct quantification was carried out in CFX-Connect PCR-system from BioRad. Relative expression of the target gene data was analyzed using delta Ct method and compared to delta Ct of expression of a reference gene. […]

[3] = tested on: ApoE gene transcripts in Alzheimer disease (AD) fibroblasts; assay: Effects of individual components on ApoE gene transcription in AD fibroblasts (young and old donors, not separated); assay type: cell-based, human; details: 1 ug/ml, overnight
[4] = tested on: ApoE gene transcripts in lung cancer cell line A549; assay: ApoE gene transcription (RT-PCR) in lung cancer cells with IL-1β; assay type: cell-based, human; details: A549, IL-1 15 pg/ml; Mix 1 4 μg/ml, estrogen 5 nM, genistein 1 μg/ml
Experimental: as §1, §2, §3

[5] = tested on: ApoE gene transcripts in AD fibroblasts (AG07887); assay: ApoE gene transcription (RT-PCR) in fibroblasts from young Alzheimer's disease donor; assay type: cell-based, human; details: with IL1b, Mix 1 at 1 mcg/ml, estradiol 5 nM
Experimental: as §1, §2, §3

[6] = tested on: MCF7 estrogen-dependent breast cancer cells; assay: In vitro MCF7 cells proliferation (E-SCREEN) assay, MTT; assay type: cell-based, human; details: β-17-estradiol 0.5 μg/ml, 6 days
Experimental: In vitro MCF7 cells proliferation (E-SCREEN) assay: MCF-7 cells (1×10^3 cells/well of a 96-well plate) were cultured with different micronutrients and plant extracts (0.5-5 μg/ml) with added β-17-estradiol (0.5 μg/ml) for 6 days at 37° C. Thereafter, medium in each well, including control wells, was replaced with 150 μl of tetrazolium MTT (3-(4, 5-dimethylthiazolyl-2)-2,5-diphenyltetrazolium bromide) ([…]). Wells that received DMSO only were used as negative control whereas that cells that receive only β-17-estradiol were use as positive control. Next, cells were incubated for 3 h at 37° C., the supernatant with MTT was removed, and the adherent cells were rinsed with PBS. Next, 150 μl of isopropanol was added to each well and the absorbance was measured at 570 nm using the microplate reader. Percentage of MTT reduction by metabolically active cell to purple formazan (reflecting cell proliferation rate) was calculated as following equation: Proliferation rate=[(ODsample-ODcontrol)/ODcontrol].
We used MCF7 cancer cells which are epithelial cells isolated from the breast tissue of a patient with metastatic adenocarcinoma and depend on estrogen to proliferate. […]

[7] = tested on: ApoE gene transcripts in AD fibroblasts (AG08629); assay: ApoE gene transcription (RT-PCR) in fibroblasts from old Alzheimer's disease donor; assay type: cell-based, human; details: with IL1b, Mix 1 at 1 mcg/ml, Basic Mix 1 ug/ml, estradiol 5 nM
Experimental: as §1, §2, §3

[8] = normal conditions (without IL1β)
[9] = pro-inflammatory conditions (IL1b 15 pg/ml)
[10] = pro-inflammatory condition (with IL1β)

## CC(C)(CO)[C@@H](O)C(=O)NCCC(=O)O [vitamin B5, Pantothenic acid]
[1]; [8]
  effect on ApoE expression: moderate lowering effect

## O=c1c(-c2ccc(O)cc2)coc2cc(O)cc(O)c12 [genistein]
[2]; A549, pro-inflammatory conditions (IL1b), 1 mcg/ml
  lowering of iNOS transcript: comparable
[3]; [9]
  effect of individual compounds on ApoE transcript: slight ApoE lowering effect
[4]
  effect on ApoE transcripts in human lung cancer cells: inhibitory effect

## O=c1c(O)c(-c2ccc(O)c(O)c2)oc2cc(O)cc(O)c12 [quercetin]
[3]; normal conditions (without IL1b)
  effect of individual compounds on ApoE transcript: lowering effect
[3]; [9]
  effect of individual compounds on ApoE transcript: ApoE increasing effects

## O[C@H]1[C@H](O)[C@@H](O)[C@H](O)[C@@H](O)[C@H]1O [inositol, Inositol]
[1]; [10]
  effect on ApoE expression: comparable

## O=c1c(-c2ccc(O)cc2)coc2cc(O)ccc12 [Daidzein]
[3]; [9]
  effect of individual compounds on ApoE transcript: ApoE increasing effects

## phosphatidyl choline
[1]; [10]
  effect on ApoE expression: comparable

## Cc1c(C)c2c(c(C)c1O)CC[C@@](C)(CCC[C@H](C)CCC[C@H](C)CCCC(C)C)O2 [Vitamin E, D-alpha-tocopherol]
[1]; [8]
  effect on ApoE expression: moderate lowering effect

## C[C@]12CC[C@@H]3c4ccc(O)cc4CC[C@H]3[C@@H]1CC[C@@H]2O [estrogen, β-17-estradiol]
[2]; A549, IL-1 15 pg/ml, estrogen 5 nM
  increase of iNOS expression over control: more than 20 times
[5]
  decrease of ApoE transcription: equal to control
[6]
  MCF7 proliferation rate, higher compared to normal control: about 1.2 folds
[7]
  decrease of ApoE transcript compared to no treatment control: about 3 times
[4]
  effect on ApoE transcripts in human lung cancer cells: inhibitory effect
